Results on 6 compounds are retold here after patent publication US9908880B2, “Substituted imidazoquinolines” (4SC AG, priority 2008, dated 2018).

Assay [1] concerns Renca LacZ tumor cell lung metastases. The assay is described as follows: Renca lung metastasis model. How it is done:
In particular, female Balb/c mice (n=10) were treated for 4 consecutive days starting day 1 or day 8 after Renca LacZ tumor cell injection, respectively. The compounds were applied in 20% PEG, ODNs in 0.9% NaCl as indicated. Lungs were excised 25 days after tumor cell injection.
In particular, female Balb/c mice (n=10) were treated for 4 consecutive days starting day 1 or day 8 after Renca LacZ tumor cell injection, respectively. The compounds (small molecules (SMOLs)) were applied in 20% PEG, ODNs in 0.9% NaCl as indicated. Lungs were excised 25 days after tumor cell injection.
Abstract 3552, Proc Am Cancer Res 48, 2007.
In particular, female Balb/c mice (n=10) were treated for 4 consecutive days starting day 1 or day 8 after Renca LacZ tumor cell injection, respectively. The SMOLs were applied in 20% PEG, the oligonucleotides in 0.9% NaCl as indicated. Lungs were excised 25 days after tumor cell injection (see FIG. 4A). Further, female Balb/c mice (n=5) were treated for 4 consecutive days as indicated. The SMOLs were applied in 20% PEG, oligonucleotides in 0.9% NaCl. At day 4 of treatment, blood was collected via orbital plexus and spleens were excised. Subsequently, mRNA was isolated for expression analysis via qPCR. Data were normalized to vehicle control (mean set to 1). Statistical evaluation was performed via Mann-Whitney test (see FIG. 4B). […]

Assay [2] deals with superficial basal cell carcinomas. The note with it: marketed 5% cream (Aldara), topical; cited from earlier work.
For another assay, the system named is PCIR-1 cells. The assay is described as follows: Cytokine mRNA induction in PCIR-1 human cancer cell line (TaqMan PCR). It counts as cell-based. The following applies: for induction of IP-10: after 15 h. The protocol:
Expression of IL8 mRNA was measured with TaqMan PCR after 16 hours incubation of cells with H2006, LPS or Resiquimod alone and in combination with cloroquine.
Cellular assays using a human cancer cell line (PCIR-1) or human PBMC fractions to test compounds for activating TLR7 are established.
Specificity for TLR7 and 9 was checked by adding chloroquine, which abrogates signaling through endosomal TLRs. The PCIR-1 system is suited for measuring the interferone-linked cytokine IP10 by a bead-based assay in the 384-well format.
TLR mRNA Expression in PCIR-1 (TaqMan PCR Analysis)
Also response to poly I-C double-stranded RNA (TLR 3 ago); 40-fold induction of IP-10 after 15 h) and MALP-2 (TLR 2/6 hetero-dimer ago, 100-fold induction of IP-10 after 15 h) is detected.
In contrast TLR4 signaling by LPS is not affected (FIG. 1).
(Quantitative PCR measures a nucleic acid by following its amplification.)

As for `CCc1nc2c(N)nc3ccccc3c2n1CCCCN(C(C)=O)C1CCOC1C` (stereo not drawn) [Example III, 3-{acetyl[4-(4-amino-2-ethyl-1H-imidazo[4,5-c]quinolin-1-yl)butyl]amino}-2,5-anhydro-1,3,4-trideoxypentitol], the “anti-metastatic effect (clearance of the lungs)” value in assay [1] (short treatment (d1-4), FIG. 5) is on record as “strong anti-metastatic effect with virtually complete clearance of the lungs”.

Consider `CC(C)Cn1cnc2c(N)nc3ccccc3c21` [Imiquimod, imiquimod], for which the “5 year clearance of superficial basal cell carcinomas” value in assay [2] is recorded as “approx 80%”.

As for `CCN(CC)CCCC(C)Nc1ccnc2cc(Cl)ccc12` (stereo not drawn) [chloroquine], in the assay with PCIR-1 cells (FIG. 1, IL8 mRNA after 16 hours), the “signaling via TLR7 and TLR9 on addition of chloroquine” value is recorded as “completely blocked”.

Consider `Nc1nc2c(sc(=O)n2[C@@H]2O[C@H](CO)[C@@H](O)[C@H]2O)c(=O)[nH]1` [isatoribine, 7-thia-8-oxoguanosine], for which the “emergence of lung metastases” value in assay [1] (murine Renca lung metastasis model) is given as “virtually completely suppressed”.

As for MALP-2, the “induction of IP-10” value with PCIR-1 cells was 100 fold.

poly I-C: the “induction of IP-10” value with PCIR-1 cells is given as 40 fold.
